In US12006328B2, “Thieno[2,3-d]pyrimidin-4-one derivatives as NMDAR modulators and uses related thereto” (Emory University, priority 2014, dated 2024):

Assays:
Format in all cases: cell-based
[1] = target: GluN2C-containing NMDA receptors (Homo sapiens, UniProt Q14957); test: Two-electrode voltage-clamp recordings from Xenopus laevis oocytes, GluN2C; details: for I10 μM/ICONTROL (mean ± SEM, %) Glu N2C: 10 μM test compound with glutamate 100 μM and glycine 30 μM, Tables 1-5; for I10 μM/ICONTROL (mean ± SEM, %) Glu N2C / maximal potentiation Glu N2C: percent of response without compound; for IC50 / maximal potentiation Glu N2C: Table 2; for IC50: glutamate 100 μM, glycine 30 μM, Hill fit, read-out: IC50 Glu N2C; for maximal potentiation Glu N2C: in brackets below IC50
Experimental: (§1) Xenopus laevis oocytes were injected with cRNA encoding the NMDA receptor subunits. Two to seven days after injection, two-electrode voltage-clamp recordings were performed. Extracellular solutions were made from a solutions containing (in mM) 90 NaCl, 3 KCl, 10 HEPES, 0.5 BaCl2, 0.01 EDTA (pH 7.4 with NaOH). Voltage and current electrodes were filled with 0.3 M and 3.0 M KCl, respectively.
(§2) Potency was determined by adding increasing concentrations of test compound to saturating concentrations of glutamate (100 μM) and glycine (30 μM), and the response amplitude measured. The response in the presence of each concentration of test compound plus agonists was expressed as a percent of the response in the absence of test compound.

[2] = target: GluN2D-containing NMDA receptors (Homo sapiens, UniProt O15399); test: Two-electrode voltage-clamp recordings from Xenopus laevis oocytes, GluN2D; details: for I10 μM/ICONTROL (mean ± SEM, %) Glu N2D: 10 μM test compound with glutamate 100 μM and glycine 30 μM, Tables 1-5; for I10 μM/ICONTROL (mean ± SEM, %) Glu N2D / maximal potentiation Glu N2D: percent of response without compound; for IC50 / maximal potentiation Glu N2D: Table 2; for IC50: glutamate 100 μM, glycine 30 μM, Hill fit, read-out: IC50 Glu N2D; for maximal potentiation Glu N2D: in brackets below IC50
Experimental: as §1, §2

[3] = target: GluN2B-containing NMDA receptors (Homo sapiens, UniProt Q13224); test: Two-electrode voltage-clamp recordings from Xenopus laevis oocytes, GluN2B; details: for I10 μM/ICONTROL (mean ± SEM, %) Glu N2B: 10 μM test compound with glutamate 100 μM and glycine 30 μM, Tables 1-5; for I10 μM/ICONTROL (mean ± SEM, %) Glu N2B / maximal potentiation Glu N2B: percent of response without compound; for IC50 / maximal potentiation Glu N2B: Table 2; for IC50: glutamate 100 μM, glycine 30 μM, Hill fit, read-out: IC50 Glu N2B; for maximal potentiation Glu N2B: in brackets below IC50
Experimental: as §1, §2

Chain of GluN2B-containing NMDA receptors (Q13224 27-1484, other chains not shown): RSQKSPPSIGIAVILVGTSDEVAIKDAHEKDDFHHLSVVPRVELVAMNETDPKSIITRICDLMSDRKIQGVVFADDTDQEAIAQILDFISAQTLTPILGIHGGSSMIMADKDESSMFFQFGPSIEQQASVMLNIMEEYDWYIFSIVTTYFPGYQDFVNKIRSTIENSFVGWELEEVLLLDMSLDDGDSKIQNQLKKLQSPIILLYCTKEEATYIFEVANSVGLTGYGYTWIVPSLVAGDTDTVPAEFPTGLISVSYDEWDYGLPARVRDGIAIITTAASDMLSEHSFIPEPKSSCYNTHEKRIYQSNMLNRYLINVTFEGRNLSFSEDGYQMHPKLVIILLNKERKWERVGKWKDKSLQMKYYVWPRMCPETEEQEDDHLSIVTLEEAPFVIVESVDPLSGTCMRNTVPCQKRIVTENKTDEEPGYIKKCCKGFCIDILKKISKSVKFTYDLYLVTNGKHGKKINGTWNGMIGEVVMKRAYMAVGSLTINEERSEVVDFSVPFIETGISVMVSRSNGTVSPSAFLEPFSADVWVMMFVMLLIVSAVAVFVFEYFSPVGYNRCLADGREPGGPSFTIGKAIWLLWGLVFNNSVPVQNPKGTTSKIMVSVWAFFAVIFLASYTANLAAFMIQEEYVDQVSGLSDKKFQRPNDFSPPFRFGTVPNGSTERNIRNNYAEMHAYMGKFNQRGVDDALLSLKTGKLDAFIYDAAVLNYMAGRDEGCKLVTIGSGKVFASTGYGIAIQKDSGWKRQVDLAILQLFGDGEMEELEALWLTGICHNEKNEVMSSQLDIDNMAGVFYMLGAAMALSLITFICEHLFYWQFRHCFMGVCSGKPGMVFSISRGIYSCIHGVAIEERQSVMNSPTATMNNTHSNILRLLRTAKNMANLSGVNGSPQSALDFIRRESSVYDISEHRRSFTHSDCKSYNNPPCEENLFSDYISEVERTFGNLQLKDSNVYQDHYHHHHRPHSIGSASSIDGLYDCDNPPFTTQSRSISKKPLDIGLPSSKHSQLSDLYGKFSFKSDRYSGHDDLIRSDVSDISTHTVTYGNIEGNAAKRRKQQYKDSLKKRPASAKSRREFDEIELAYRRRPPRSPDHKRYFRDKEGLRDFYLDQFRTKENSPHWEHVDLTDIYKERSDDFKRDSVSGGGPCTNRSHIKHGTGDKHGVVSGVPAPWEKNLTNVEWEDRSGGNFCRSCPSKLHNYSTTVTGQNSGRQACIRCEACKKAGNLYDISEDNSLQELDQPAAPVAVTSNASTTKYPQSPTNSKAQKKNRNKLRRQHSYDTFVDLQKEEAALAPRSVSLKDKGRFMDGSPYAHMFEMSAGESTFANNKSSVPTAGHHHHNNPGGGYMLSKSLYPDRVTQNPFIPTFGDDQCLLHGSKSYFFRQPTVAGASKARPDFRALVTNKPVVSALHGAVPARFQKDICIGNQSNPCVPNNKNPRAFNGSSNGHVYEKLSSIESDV
Chain of GluN2C-containing NMDA receptors (Q14957 20-1233, other chains not shown): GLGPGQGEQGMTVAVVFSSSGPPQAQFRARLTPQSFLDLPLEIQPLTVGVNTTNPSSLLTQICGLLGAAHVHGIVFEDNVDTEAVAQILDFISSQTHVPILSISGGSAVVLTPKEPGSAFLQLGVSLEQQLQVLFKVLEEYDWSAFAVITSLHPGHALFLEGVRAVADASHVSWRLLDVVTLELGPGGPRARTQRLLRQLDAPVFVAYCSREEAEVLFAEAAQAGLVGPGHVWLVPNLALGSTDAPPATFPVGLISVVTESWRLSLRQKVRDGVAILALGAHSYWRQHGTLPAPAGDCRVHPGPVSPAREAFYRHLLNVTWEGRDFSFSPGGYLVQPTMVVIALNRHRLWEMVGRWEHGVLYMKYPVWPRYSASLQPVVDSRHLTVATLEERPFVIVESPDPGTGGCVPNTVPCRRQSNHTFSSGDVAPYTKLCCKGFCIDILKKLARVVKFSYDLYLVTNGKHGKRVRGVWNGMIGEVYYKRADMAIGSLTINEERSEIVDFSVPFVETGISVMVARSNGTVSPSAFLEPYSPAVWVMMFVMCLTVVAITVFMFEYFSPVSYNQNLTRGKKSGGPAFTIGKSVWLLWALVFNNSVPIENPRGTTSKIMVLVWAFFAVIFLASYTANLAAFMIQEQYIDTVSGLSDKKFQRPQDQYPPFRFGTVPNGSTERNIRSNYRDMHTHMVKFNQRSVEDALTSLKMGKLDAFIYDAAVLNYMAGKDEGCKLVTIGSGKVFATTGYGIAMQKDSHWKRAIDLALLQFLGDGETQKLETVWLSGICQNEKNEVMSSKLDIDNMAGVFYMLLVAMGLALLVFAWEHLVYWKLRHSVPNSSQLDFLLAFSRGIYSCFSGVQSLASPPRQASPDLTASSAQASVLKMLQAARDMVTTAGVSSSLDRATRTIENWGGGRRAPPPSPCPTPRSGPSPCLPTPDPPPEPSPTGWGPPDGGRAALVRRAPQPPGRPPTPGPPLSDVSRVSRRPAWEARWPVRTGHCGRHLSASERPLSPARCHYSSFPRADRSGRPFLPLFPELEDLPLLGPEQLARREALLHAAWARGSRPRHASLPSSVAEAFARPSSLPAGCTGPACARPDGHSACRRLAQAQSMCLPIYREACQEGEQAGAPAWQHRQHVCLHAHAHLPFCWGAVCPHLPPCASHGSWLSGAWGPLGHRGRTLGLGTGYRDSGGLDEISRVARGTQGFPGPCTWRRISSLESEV
Chain of GluN2D-containing NMDA receptors (O15399 28-1336, other chains not shown): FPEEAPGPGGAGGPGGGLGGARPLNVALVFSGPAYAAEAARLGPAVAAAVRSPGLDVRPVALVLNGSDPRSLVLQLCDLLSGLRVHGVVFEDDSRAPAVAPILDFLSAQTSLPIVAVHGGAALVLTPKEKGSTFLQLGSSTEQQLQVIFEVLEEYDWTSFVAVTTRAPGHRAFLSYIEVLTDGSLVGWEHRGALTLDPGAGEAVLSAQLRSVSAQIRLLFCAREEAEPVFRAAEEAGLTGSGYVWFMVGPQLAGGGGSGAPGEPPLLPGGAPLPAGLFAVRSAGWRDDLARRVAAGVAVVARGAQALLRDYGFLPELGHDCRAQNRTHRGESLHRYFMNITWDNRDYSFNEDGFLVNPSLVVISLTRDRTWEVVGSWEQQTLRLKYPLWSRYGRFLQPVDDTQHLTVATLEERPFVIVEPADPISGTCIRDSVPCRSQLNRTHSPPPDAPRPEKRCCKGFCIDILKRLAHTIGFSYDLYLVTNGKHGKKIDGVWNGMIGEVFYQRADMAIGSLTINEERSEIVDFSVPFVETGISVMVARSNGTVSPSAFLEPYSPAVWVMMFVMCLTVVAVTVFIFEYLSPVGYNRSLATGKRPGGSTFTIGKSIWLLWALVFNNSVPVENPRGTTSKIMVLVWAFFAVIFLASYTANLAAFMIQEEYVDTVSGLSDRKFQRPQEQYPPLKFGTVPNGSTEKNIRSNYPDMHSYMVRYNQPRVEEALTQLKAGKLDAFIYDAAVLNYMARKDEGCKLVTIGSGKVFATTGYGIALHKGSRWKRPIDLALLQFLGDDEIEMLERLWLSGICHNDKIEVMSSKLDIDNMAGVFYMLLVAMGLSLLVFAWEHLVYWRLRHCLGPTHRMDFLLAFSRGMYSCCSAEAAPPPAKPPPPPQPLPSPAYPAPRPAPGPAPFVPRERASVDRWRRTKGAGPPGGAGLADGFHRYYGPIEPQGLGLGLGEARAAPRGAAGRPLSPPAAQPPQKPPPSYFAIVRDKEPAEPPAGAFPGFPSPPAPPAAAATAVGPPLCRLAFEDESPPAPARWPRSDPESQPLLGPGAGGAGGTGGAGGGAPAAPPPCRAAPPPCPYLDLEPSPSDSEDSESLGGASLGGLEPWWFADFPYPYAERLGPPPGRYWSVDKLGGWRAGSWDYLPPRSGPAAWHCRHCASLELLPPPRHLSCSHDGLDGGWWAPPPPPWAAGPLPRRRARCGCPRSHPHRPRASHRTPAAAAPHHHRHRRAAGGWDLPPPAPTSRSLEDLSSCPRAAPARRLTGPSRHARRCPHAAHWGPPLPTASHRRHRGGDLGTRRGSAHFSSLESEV

SMILES | I10 μM/ICONTROL (mean ± SEM, %) Glu N2C [1] [%] | I10 μM/ICONTROL (mean ± SEM, %) Glu N2D [2] [%] | I10 μM/ICONTROL (mean ± SEM, %) Glu N2B [3] [%] | IC50 [1] [µM] | maximal potentiation Glu N2C [1] | IC50 [2] [µM] | maximal potentiation Glu N2D [2] | IC50 [3] [µM] | maximal potentiation Glu N2B [3]
COC(=O)[C@@H]1CCCN1C(=O)Cn1cnc2sc(C)c(-c3ccc(Br)cc3)c2c1=O | 159 ± 9.5 | 147 ± 12.7 | 109 ± 4.9 | – | – | – | – | – | –
Cc1sc2ncn(Cc3cn(CCC4OCCCO4)nn3)c(=O)c2c1-c1cccc(Cl)c1 | 88 ± 0.5 | 88 ± 3.4 | 89 ± 2.5 | – | – | – | – | – | –
Cc1sc2ncn(Cc3cnnn3CCC3OCCCO3)c(=O)c2c1-c1cccc(Cl)c1 | 92 ± 0.8 | 91 ± 1.3 | 89 ± 2.5 | – | – | – | – | – | –
COCCn1cc(Cn2cnc3sc(C)c(-c4cccc(Cl)c4)c3c2=O)nn1 | 93 ± 2.2 | 84 ± 3.4 | 99 ± 1.9 | – | – | – | – | – | –
Cc1sc2ncn(CC(=O)N3CCCCC3)c(=O)c2c1-c1cc(Br)cc(Br)c1 [1 / 3,5-Br—Ph / Me / —Npiperidine] | 232 ± 14.4 | 179 ± 10.1 | – | 4.3 | (233) % | – | – | – | –
Cc1sc2ncn(CC(=O)N3CCCCC3)c(=O)c2c1-c1cc(C(F)(F)F)cc(C(F)(F)F)c1 [1 / 3,5-CF3—Ph / Me / —Npiperidine] | – | – | – | 1.4 | (155) % | – | – | – | –
Cc1sc2ncn(CC(=O)c3cccs3)c(=O)c2c1-c1cccc(Cl)c1 [1 / 3-Cl—Ph / Me / 2-thiophene] | 125 ± 2.8 | 137 ± 6.3 | 133 ± 3.9 | 19 | (293) % | 15 | (224) % | 14 | (207) %
Cc1sc2ncn(CC(=O)N3CCCCC3)c(=O)c2c1-c1ccc(Cl)cc1 [1 / 4-Cl—Ph / Me / —Npiperidine] | – | – | – | 136 | (232) % | 52 | (163) % | – | –
Cc1ccc(-c2csc3ncn(CC(=O)N4CCC4)c(=O)c23)cc1 [1 / 4-Me—Ph / H / —Nazetidine] | – | – | – | > 100 | – | 57 | (0) % | – | –

The next lines start with results.

I10 μM/ICONTROL (mean ± SEM, %) Glu N2C [1] [%] | I10 μM/ICONTROL (mean ± SEM, %) Glu N2D [2] [%] | I10 μM/ICONTROL (mean ± SEM, %) Glu N2B [3] [%] | IC50 [1] [µM] | maximal potentiation Glu N2C [1] | IC50 [2] [µM] | maximal potentiation Glu N2D [2] | SMILES | IC50 [3] [µM] | maximal potentiation Glu N2B [3]
168 ± 13.9 | 143 ± 3.2 | – | 15 | (300) % | 94 | (600) % | Cc1sc2ncn(CC(=O)N3CCCCC3)c(=O)c2c1-c1ccc(Br)c(Br)c1 [1 / 3,4-Br—Ph / Me / —Npiperidine] | – | –
141 ± 7.0 | 136 ± 3.0 | 127 ± 4.6 | 26 | (390) % | 16 | (245) % | CCOC(=O)Cn1cnc2sc(C)c(-c3cccc(Cl)c3)c2c1=O [1 / 3-Cl—Ph / Me / OEt] | 17 | (148) %
96 ± 4.8 | 93 ± 1.8 | – | – | – | – | – | Cc1sc2ncn(CC(=O)c3ccc(Cl)cc3Cl)c(=O)c2c1-c1cccc(I)c1 [1 / 3-I—Ph / Me / 2,4-Cl—Ph] | – | –
166 ± 9.5 | 133 ± 3.0 | – | 9.4 | (225) % | 14 | (191) % | Cc1sc2ncn(CC(=O)C3CCCC3)c(=O)c2c1-c1cccc(I)c1 [1 / 3-I—Ph / Me / -cyclopentyl] | – | –
109 ± 4.9 | 119 ± 8.9 | – | – | – | – | – | CON(C)C(=O)Cn1cnc2sc(C)c(-c3cccc(I)c3)c2c1=O [1 / 3-I—Ph / Me / —N(OMe)Me] | – | –
145 ± 11.4 | 124 ± 4.8 | – | – | – | – | – | Cc1sc2ncn(CC(=O)N3CCCCC3)c(=O)c2c1-c1cccc(I)c1 [1 / 3-I—Ph / Me / —Npiperidine] | – | –
